Source: ChEMBL document CHEMBL6103652, “Niacin Ester Derivative of Brefeldin A as a Potential Dual-Target Arf1/BMX Inhibitor for Bladder Cancer” (J Nat Prod, 2025)
Values after ≈ are worked out from the molar mass of the structure shown. Active and inactive are the calls of the source. The calls are words filed in the database; no cut-off is given here.

What was measured:
[1] = Volume of distribution at steady state in Sprague-Dawley rat at 5 mg/kg, iv measured upto 24 hrs; type: ADME, organism-based; conditions: in vivo, read-out: Vdss
[2] = Antitumor activity against mouse MB49 cells implanted in male C57BL/6 mouse model assessed as reduction in tumor weight at 1 mg/kg,iv bid measured after 14 days relative to control; type: functional; design: scale not given: the % may be the effect or the level left; conditions: time 14 day
MB49 [3] = experiment: Antitumor activity against mouse MB49 cells implanted in male C57BL/6 mouse model assessed as reduction in tumor volume at 1 mg/kg,iv bid measured after 14 days; type: functional, organism-based; conditions: time 14.0 day
[4] = Downregulation of STAT3 expression level in human T24 cells at 0.25 uM incubated for 24 hrs by Western blotting analysis relative to control; type: functional, T-24
[5] = Downregulation of AKT expression level in human T24 cells at 0.13 to 0.50 uM incubated for 24 hrs by Western blotting analysis relative to control; type: functional, T-24; conditions: dose 0.13-0.5 µM, at 0.13 to 0.5 µM
MB49 [6] = experiment: Antitumor immunity against mouse MB49 cells implanted in male C57BL/6 mouse assessed as increase in infiltration of CD4+ cells at 1 mg/kg,iv bid measured after 14 days immunofluorescence based analysis; type: functional, organism-based; conditions: time 14.0 day
[7] = Solubility of the compound in 5% saline and 50% PEG400; type: physicochemical
T-24 [8] = experiment: Induction in apoptosis in human T24 cells assessed as necrotic cells at 0.13 uM incubated for 48 hrs by Annexin V-FITC staining based flow cytometry analysis (reference value: 1.14 %); type: functional
T-24 [9] = experiment: Induction in apoptosis in human T24 cells assessed as early apoptotic cells at 0.25 uM incubated for 48 hrs by Annexin V-FITC staining based flow cytometry analysis (reference value: 3.64 %); type: functional
T-24 [10] = experiment: Induction in apoptosis in human T24 cells assessed as total apoptotic cells at 0.125 to 0.50 uM incubated for 48 hrs by Annexin V-FITC staining based flow cytometry analysis (reference value: 8 %); type: functional; conditions: dose 0.125-0.5 µM, at 0.125 to 0.5 µM
T-24 [11] = experiment: Inhibition of colony formation in human T24 cells at 0.25 uM measured after 10 days by crystal violet staining based analysis; type: functional, cell-based; conditions: time 10.0 day
[12] = Toxicity in male C57BL/6 mouse allografted with mouse MB49 cells assessed as tumor cell apoptosis at 1 mg/kg,iv bid measured after 14 days by H and E staining based analysis; type: organism-based; conditions: in vivo, 336 h, time 14 day
T-24 [13] = experiment: Induction in apoptosis in human T24 cells assessed as viable cells at 0.13 uM incubated for 48 hrs by Annexin V-FITC staining based flow cytometry analysis (reference value: 90.44 %); type: functional; conditions: read-out: Activity
T-24 [14] = experiment: Induction of cell cycle arrest in human T24 cells assessed as accumulation of cells at G2/M phase at 0.50 uM incubated for 24 hrs by RNase A/Propidium Iodide staining based flow cytometry analysis (reference value: 22.67 %); type: functional; conditions: dose 0.5 µM
[15] = Antitumor activity against mouse MB49 cells implanted in male C57BL/6 mouse assessed as reduction in Ki67 expression level at 1 mg/kg,iv bid measured after 14 days by immunohistochemical analysis relative to control; type: functional; design: scale not given: the % may be the effect or the level left; conditions: time 14 day
[16] = Antitumor activity against mouse MB49 cells implanted in male C57BL/6 mouse assessed as reduction in CD133 expression level at 1 mg/kg,iv bid measured after 14 days by immunohistochemical analysis relative to control; type: functional; design: scale not given: the % may be the effect or the level left; conditions: time 14 day
[17] = target: T1, Cytoplasmic tyrosine-protein kinase BMX (Homo sapiens) (UniProt P51813); experiment: Inhibition of BMX phosphorylation in human T24 cells incubated for 24 hrs by Western blotting analysis; type: cell-based; conditions: dose 0.13-0.5 µM
T1 sequence (whole entry): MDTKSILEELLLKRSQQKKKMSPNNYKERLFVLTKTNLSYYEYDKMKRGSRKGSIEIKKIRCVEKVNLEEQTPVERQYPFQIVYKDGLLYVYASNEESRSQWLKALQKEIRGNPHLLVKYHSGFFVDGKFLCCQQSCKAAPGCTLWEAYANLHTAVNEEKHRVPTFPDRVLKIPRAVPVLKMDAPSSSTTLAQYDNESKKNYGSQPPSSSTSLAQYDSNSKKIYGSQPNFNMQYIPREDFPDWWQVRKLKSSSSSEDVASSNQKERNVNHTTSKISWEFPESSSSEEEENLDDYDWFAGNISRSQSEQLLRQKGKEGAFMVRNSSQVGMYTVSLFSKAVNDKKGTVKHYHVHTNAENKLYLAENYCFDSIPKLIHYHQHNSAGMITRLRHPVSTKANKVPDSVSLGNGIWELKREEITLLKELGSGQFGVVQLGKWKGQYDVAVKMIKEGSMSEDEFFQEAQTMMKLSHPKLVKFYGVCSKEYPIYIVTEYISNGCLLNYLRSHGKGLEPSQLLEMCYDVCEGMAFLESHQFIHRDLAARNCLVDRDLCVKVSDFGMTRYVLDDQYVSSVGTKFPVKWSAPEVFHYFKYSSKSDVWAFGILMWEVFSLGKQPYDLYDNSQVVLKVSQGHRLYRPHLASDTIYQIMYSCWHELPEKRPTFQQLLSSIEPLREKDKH

T-24 [18] = experiment: Induction in apoptosis in human T24 cells assessed as late apoptotic cells at 0.13 uM incubated for 48 hrs by Annexin V-FITC staining based flow cytometry analysis (reference value: 4.78 %); type: functional
[19] = AUC(0 to t) in Sprague-Dawley rat at 5 mg/kg, iv measured upto 24 hrs; type: ADME, organism-based; conditions: in vivo
[20] = Downregulation of p-BMX expression level in human T24 cells at 0.5 uM incubated for 24 hrs by Western blotting analysis relative to control; type: functional, T-24
[21] = target: Signal transducer and activator of transcription 3 (Homo sapiens) (UniProt P40763); experiment: Inhibition of STAT3 phosphorylation in human T24 cells incubated for 24 hrs by Western blotting analysis; type: cell-based; conditions: dose 0.13-0.5 µM
Signal transducer and activator of transcription 3 (Homo sapiens), sequence (P40763 whole entry): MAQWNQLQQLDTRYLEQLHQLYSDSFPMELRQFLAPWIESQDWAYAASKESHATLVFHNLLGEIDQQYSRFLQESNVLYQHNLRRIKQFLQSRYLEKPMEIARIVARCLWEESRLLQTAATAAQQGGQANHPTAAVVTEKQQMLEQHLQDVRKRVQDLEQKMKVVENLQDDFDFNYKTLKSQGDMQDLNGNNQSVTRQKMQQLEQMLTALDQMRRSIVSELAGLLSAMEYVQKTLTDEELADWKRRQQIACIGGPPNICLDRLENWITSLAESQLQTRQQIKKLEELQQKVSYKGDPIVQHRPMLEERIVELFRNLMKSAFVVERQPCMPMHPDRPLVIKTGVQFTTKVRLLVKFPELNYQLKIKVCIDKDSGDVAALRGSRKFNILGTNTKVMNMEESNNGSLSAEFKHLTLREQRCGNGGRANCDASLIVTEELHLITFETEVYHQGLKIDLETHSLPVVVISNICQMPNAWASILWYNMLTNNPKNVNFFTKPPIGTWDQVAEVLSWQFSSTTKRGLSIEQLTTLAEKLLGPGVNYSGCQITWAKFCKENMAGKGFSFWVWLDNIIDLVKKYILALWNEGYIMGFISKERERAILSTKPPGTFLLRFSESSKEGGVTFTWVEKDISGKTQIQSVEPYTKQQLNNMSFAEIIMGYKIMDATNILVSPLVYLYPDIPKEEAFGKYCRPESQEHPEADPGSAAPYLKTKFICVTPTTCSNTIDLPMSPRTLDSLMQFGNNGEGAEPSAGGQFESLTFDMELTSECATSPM

Huh-7 = experiment: Antiproliferative activity against human Huh-7 cells assessed as inhibition of cell proliferation measured after 72 hrs by MTT assay; type: functional, cell-based; conditions: Huh-7, 72 h
[22] = Half life in Sprague-Dawley rat at 5 mg/kg, iv measured upto 24 hrs; type: ADME, organism-based; conditions: in vivo
[23] = target: T1, Cytoplasmic tyrosine-protein kinase BMX (Homo sapiens); experiment: Induction of thermal stabilization of BMX in human T24 cells pretreated for 2 hrs followed by pronase addition and measured after 25 mins by DARTS assay; type: cell-based; conditions: dose 0.2-5 mM
T-24 [24] = experiment: Induction in apoptosis in human T24 cells assessed as viable cells at 0.25 uM incubated for 48 hrs by Annexin V-FITC staining based flow cytometry analysis (reference value: 90.44 %); type: functional; conditions: read-out: Activity
T24 = experiment: Inhibition of AKT phosphorylation in human T24 cells incubated for 24 hrs by Western blotting analysis; type: cell-based; conditions: dose 0.13-0.5 µM
T-24 [25] = experiment: Induction of cell cycle arrest in human T24 cells assessed as accumulation of cells at G2/M phase at 0.13 uM incubated for 24 hrs by RNase A/Propidium Iodide staining based flow cytometry analysis (reference value: 22.67 %); type: functional
T-24 [26] = experiment: Induction in apoptosis in human T24 cells assessed as late apoptotic cells at 0.25 uM incubated for 48 hrs by Annexin V-FITC staining based flow cytometry analysis (reference value: 4.78 %); type: functional

Vd [1]: 0.59 L/kg | solubility [7]: 5000 µg/mL (≈ 13 mM) | inhibition [17]: Dose-dependent-effect | AUC(0-t) at 24 h [19]: 1350 ng·h/mL | inhibition [21]: Dose-dependent-effect | IC50 (Huh-7): 1000 nM | half-life [22]: 21.6 min | Activity [23]: Dose-dependent-effect
SMILES: C[C@H]1CCC/C=C/[C@@H]2C[C@H](O)C[C@H]2[C@H](OC(=O)c2cccnc2)/C=C/C(=O)O1
Activity [2]: 48% | Activity (MB49 [3]): Active | Activity [4]: 53% | Activity [5]: 62% | Activity (MB49 [6]): Active | Activity (T-24 [8]): 0.91% | Activity (T-24 [9]): 6.75% | Activity (T-24 [10]): 31% | inhibition (T-24 [11]): Active; Entirely Suppressed Clone Formation Was Observed | Activity [12]: Non-toxic | viability at 0.13 µM (T-24 [13]): 89.2% | Activity (T-24 [14]): 14.82% | Activity [15]: 56% | Activity [16]: 61% | Activity (T-24 [18]): 4.41% | Activity [20]: 35% | viability at 0.25 µM (T-24 [24]): 66.9% | inhibition (T24): Dose-dependent-effect | Activity (T-24 [25]): 22.53% | Activity (T-24 [26]): 23.01%
